The record followed here is ChEMBL document CHEMBL5233280, “Berberine improves liver injury induced glucose and lipid metabolic disorders via alleviating ER stress of hepatocytes and modulating gut microbiota in mice” (Bioorg Med Chem, 2021).

Calls of active or inactive are those of the source. No cut-off for these calls is given here.

Type in all cases: functional, organism-based
Experiment [1] deals with Mus musculus. Put plainly: Protection against tunicamycin-induced UPR response in C57BL/6 mouse assessed as downregulation of PERK protein expression in liver at 150 mg/kg, ig administered for 3 days and on day 3 administered with tunicamycin after 2 hrs and measured after 24 hrs by western blot analysis. The note with it: time 4.0 day. In general terms: Immunoblotting shows a protein as a band on a membrane.

Experiment [2] deals with Mus musculus. Put plainly: Protection against tunicamycin-induced liver injury-mediated hepatic metabolic disorders in C57BL/6 mouse assessed as inhibition of lipid metabolic disorders by measuring increase in plasma LDL-C level at 75 to 300 mg/kg, ig administered for 3 days and on day 3 administered with tunicamycin after 2 hrs and measured after 24 hrs. The note with it: dose 75-300 mg/kg, time 4.0 day.

The subject of experiment [3] is Mus musculus. Put plainly: Protection against tunicamycin-induced UPR response in C57BL/6 mouse assessed as downregulation of PERK gene expression in liver at 150 mg/kg, ig administered for 3 days and on day 3 administered with tunicamycin after 2 hrs and measured after 24 hrs by RT-qPCR analysis. The note with it: time 4.0 day. (In qPCR the cycle at which signal appears reflects the starting amount.)

In experiment [4] the test system is Mus musculus. The experiment can be described thus: Protection against tunicamycin-induced liver injury-mediated hepatic metabolic disorders in C57BL/6 mouse assessed as LDL-C level in liver at 75 to 300 mg/kg, ig administered for 3 days and on day 3 administered with tunicamycin after 2 hrs and measured after 24 hrs. As to conditions: dose 75-300 mg/kg, time 4.0 day.

In experiment [5] the test system is Mus musculus. Put plainly: Effect on Akt protein expression in liver of tunicamycin-induced liver injury C57BL/6 mouse model at 75 to 300 mg/kg, ig administered for 3 days and on day 3 administered with tunicamycin after 2 hrs and measured after 24 hrs in presence of insulin by western blot analysis. As to conditions: dose 75-300 mg/kg, time 4.0 day.
Experiment [6] has as its system Mus musculus. The experiment can be described thus: Protection against tunicamycin-induced liver injury-mediated hepatic metabolic disorders in C57BL/6 mouse assessed as reduction in FGF21 gene expression in liver at 75 to 300 mg/kg, ig administered for 3 days and on day 3 administered with tunicamycin after 2 hrs and measured after 24 hrs by RT-qPCR analysis. As to conditions: dose 75-300 mg/kg, time 4.0 day.

The subject of experiment [7] is Mus musculus. Put plainly: Protection against tunicamycin-induced liver injury-mediated hepatic metabolic disorders in C57BL/6 mouse assessed as reduction in TRB3 gene expression in liver at 150 mg/kg, ig administered for 3 days and on day 3 administered with tunicamycin after 2 hrs and measured after 24 hrs by RT-qPCR analysis. As to conditions: time 4.0 day.
Experiment [8] concerns Mus musculus. Put plainly: Reduction in plasma albumin level in tunicamycin-induced liver injury C57BL/6 mouse model at 75 to 300 mg/kg, ig administered for 3 days and on day 3 administered with tunicamycin after 2 hrs and measured after 24 hrs. As to conditions: dose 75-300 mg/kg, time 4.0 day.
Experiment [9] has as its system Mus musculus. The experiment can be described thus: Protection against tunicamycin-induced gut microbiota dysbiosis in C57BL/6 mouse assessed as increase in Pediococcus-pentosaceus abundance in colon at 150 mg/kg, ig administered for 3 days and on day 3 administered with tunicamycin after 2 hrs and measured after 24 hrs by LEfse analysis. The note with it: time 4.0 day.

Experiment [10] relates to Mus musculus. The experiment can be described thus: Protection against tunicamycin-induced liver injury-mediated hepatic metabolic disorders in C57BL/6 mouse assessed as inhibition of lipid metabolic disorders by measuring increase in plasma VLDL-C level at 75 to 300 mg/kg, ig administered for 3 days and on day 3 administered with tunicamycin after 2 hrs and measured after 24 hrs by ELISA. The note with it: dose 75-300 mg/kg, time 4.0 day.

Experiment [11] concerns Mus musculus. The experiment can be described thus: Protection against tunicamycin-induced UPR response in C57BL/6 mouse assessed as downregulation of ATF6 gene expression in liver at 150 mg/kg, ig administered for 3 days and on day 3 administered with tunicamycin after 2 hrs and measured after 24 hrs by RT-qPCR analysis. The note with it: time 4.0 day.
Experiment [12] deals with Mus musculus. The experiment can be described thus: Protection against tunicamycin-induced liver injury-mediated hepatic metabolic disorders in C57BL/6 mouse assessed as increase in phosphorylated Akt level in liver at 150 mg/kg, ig administered for 3 days and on day 3 administered with tunicamycin after 2 hrs and measured after 24 hrs in presence of insulin by western blot analysis. As to conditions: time 4.0 day.

Experiment [13] concerns Mus musculus. Put plainly: Protection against tunicamycin-induced ER stress in C57BL/6 mouse assessed as downregulation of CHOP protein expression in liver at 150 mg/kg, ig administered for 3 days and on day 3 administered with tunicamycin after 2 hrs and measured after 24 hrs by western blot analysis. As to conditions: time 4.0 day.
The test system of experiment [14] is Mus musculus. The experiment can be described thus: Protection against tunicamycin-induced liver injury-mediated hepatic metabolic disorders in C57BL/6 mouse assessed as inhibition of lipid metabolic disorders by measuring increase in plasma TC level at 75 to 300 mg/kg, ig administered for 3 days and on day 3 administered with tunicamycin after 2 hrs and measured after 24 hrs. The note with it: dose 75-300 mg/kg, time 4.0 day.

Experiment [15] has as its system Mus musculus. Put plainly: Protection against tunicamycin-induced UPR response in C57BL/6 mouse assessed as downregulation of IRE1alpha protein expression in liver at 150 mg/kg, ig administered for 3 days and on day 3 administered with tunicamycin after 2 hrs and measured after 24 hrs by western blot analysis. As to conditions: time 4.0 day.
The test system of experiment [16] is Mus musculus. The experiment can be described thus: Protection against tunicamycin-induced ER stress-mediated liver injury in C57BL/6 mouse assessed as normal liver morphology at 75 to 300 mg/kg, ig administered for 3 days and on day 3 administered with tunicamycin after 2 hrs and measured after 24 hrs. The note with it: dose 75-300 mg/kg, time 4.0 day.
The test system of experiment [17] is Mus musculus. The experiment can be described thus: Protection against tunicamycin-induced ER stress-mediated liver injury in C57BL/6 mouse assessed as normal liver histology at 75 to 300 mg/kg, ig administered for 3 days and on day 3 administered with tunicamycin after 2 hrs and measured after 24 hrs by Hematoxylin-eosin staining based microscopic analysis. The note with it: dose 75-300 mg/kg, time 4.0 day.

Experiment [18] has as its system Mus musculus. Put plainly: Protection against tunicamycin-induced ER stress in C57BL/6 mouse assessed as downregulation of GRP78 protein expression in liver at 150 mg/kg, ig administered for 3 days and on day 3 administered with tunicamycin after 2 hrs and measured after 24 hrs by western blot analysis. As to conditions: time 4.0 day.
The test system of experiment [19] is Mus musculus. Put plainly: Protection against tunicamycin-induced liver injury-mediated hepatic metabolic disorders in C57BL/6 mouse assessed as reduction in FGF21 level in serum at 75 to 300 mg/kg, ig administered for 3 days and on day 3 administered with tunicamycin after 2 hrs and measured after 24 hrs by ELISA. As to conditions: dose 75-300 mg/kg, time 4.0 day.

Experiment [20] has as its system Mus musculus. The experiment can be described thus: Protection against tunicamycin-induced liver injury-mediated hepatic metabolic disorders in C57BL/6 mouse assessed as inhibition of lipid metabolic disorders by measuring increase in plasma HDL-C level at 75 to 300 mg/kg, ig administered for 3 days and on day 3 administered with tunicamycin after 2 hrs and measured after 24 hrs. As to conditions: dose 75-300 mg/kg, time 4.0 day.

Experiment [21] relates to Mus musculus. The experiment can be described thus: Protection against tunicamycin-induced liver injury-mediated hepatic metabolic disorders in C57BL/6 mouse assessed as inhibition of lipid metabolic disorders by measuring decrease in liver TG level at 75 to 300 mg/kg, ig administered for 3 days and on day 3 administered with tunicamycin after 2 hrs and measured after 24 hrs. As to conditions: dose 75-300 mg/kg, time 4.0 day.

`COc1ccc2cc3[n+](cc2c1OC)CCc1cc2c(cc1-3)OCO2`: the result in the experiment with Mus musculus [1], in the experiment with Mus musculus [2], in the experiment on Mus musculus [3], with Mus musculus [6], with Mus musculus [7] and in the experiment on Mus musculus [9] was Active. Also, the result in the experiment with Mus musculus [10], with Mus musculus [11], with Mus musculus [12], with Mus musculus [13], in the experiment on Mus musculus [14] and in the experiment with Mus musculus [15] was Active. For the same molecule, the outcome in the experiment on Mus musculus [16], with Mus musculus [17], in the experiment with Mus musculus [18], with Mus musculus [19], in the experiment with Mus musculus [20] and with Mus musculus [21] was Active. Further, the outcome in the experiment with Mus musculus [4] and in the experiment on Mus musculus [5] was inactive. Also, the inhibition result in the experiment with Mus musculus [8] is “Active”.
